Drawing on US20220289732A1, “HETEROCYCLIC WDR5 INHIBITORS AS ANTI-CANCER COMPOUNDS” (NOVARTIS AG, priority 2019, published 2022), this text covers AC50 and IC50 for 22 compounds.

In one test the test system is MV4-11 cells. Description: MV4-11 6-day cell growth CTG (CellTiter-Glo) assay. It counts as cell-based. The settings on record: Homo sapiens, MV4-11, 144 h, 6 days, read-out: (c) MLL/WDR5 cell proliferation assay//MLL/WDR5 proliferation MV4:11 Qualified AC50. In short, it runs like this:
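Exponentially growing MV4-11 AML cells (RPMI 1640, 10% FBS) seeded at 300 cells/well with 12-point 1:3 compound dilutions, top final concentration 50 μM. Viability read by CellTiter-Glo luminescence after 6 days at 37° C; % inhibition vs DMSO-only wells fitted to dose-response for IC50.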
(In ATP-based viability assays light output follows the ATP content of the culture.)

The next test concerns the target WDR5 (Homo sapiens, UniProt P61964). Nature of the test: WDR5 HTRF binding assay. The settings on record: read-out: (a) WDR5 HTRF Pep Val v.1[Inhibitor/IC50]Qualified AC50. In short, it runs like this: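 6 nM WDR5 and 20 nM biotin-MLL1 WIN peptide (3762-3773) were incubated with compound (12-point, 3-fold dilutions) in pH 7.5 Hepes/NaCl/DTT buffer for 20 min at rt. Streptavidin-APC plus anti-His-Eu were then added for 1 hr, with HTRF read at 665/615. IC50 was fit from control-normalized activity; the counter assay used 15 nM biotin-PEG-His peptide.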
(In general: Time-resolved FRET reads energy transfer from a long-lived donor to a nearby acceptor.)

Test [1] addresses wild type MLL1 four-member complex (MLL1-4C) (Homo sapiens, UniProt P61964). Description: MLL1 LC-MS assay (SAH production). It counts as biochemical. Conditions: read-out: (b) MLL LCMS Peptide Val.v.1 Qualified AC50. In short, it runs like this: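 MLL1-4C (30 nM final) was preincubated 20 min with compound (3-fold dilutions, 8 or 12 points) and SAM in Tris-HCl pH 8.0 buffer. H3K4me0 peptide (histone H3[1-21]-biotin) was then added, giving final 2.5 μM SAM and 10 μM substrate, and reactions ran 120 min at rt. After TFA/d4-SAH quench, SAH was quantified by LC-MS/MS and IC50 fitted from control-normalised activity.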

Each structure is given as a SMILES string. pIC50: −log10 of the molar value. A value given as a limit tells only on which side of the number the result lay.

For the compound `CNc1nccn1Cc1cc2c(c(-c3cc(CO)cnc3Cl)c1)CCN(Cc1ccc(F)c(OC(F)F)c1)C2=O` [Example 74, 5-(2-chloro-5-(hydroxymethyl)pyridin-3-yl)-2-(3-(difluoromethoxy)-4-fluorobenzyl)-7-((2-(methylamino)-1H-imidazol-1-yl)methyl)-3,4-dihydroisoquinolin-1(2H)-one], the AC50 (in the test on MV4-11 cells; in test [1]) was 10 to 1000 nM throughout. Besides, the pIC50 on WDR5 was 6.00 to 8.00.

Regarding `CCOc1cc([C@H](C)N2CCc3c(cc(Cn4ccnc4C)cc3-c3c[nH]c(=O)cc3C(F)(F)F)C2=O)ncc1C#N` [Example 269, (S)-4-Ethoxy-6-(1-(7-((2-methyl-1H-imidazol-1-yl)methyl)-1-oxo-5-(6-oxo-4-(trifluoromethyl)-1,6-dihydropyridin-3-yl)-3,4-dihydroisoquinolin-2(1H)-yl)ethyl)nicotinonitrile], the AC50 (in the test on MV4-11 cells; in test [1]) was 10 to 1000 nM throughout. Further, the pIC50 at WDR5 is greater than 8.00.

With `CCOc1cc([C@H](C)N2CCc3c(cc(Cn4ccnc4C)cc3-c3cc(CN(C)C)nn3C)C2=O)ncc1C#N` (single isomer, unassigned) [Example 270], the AC50 (in the test on MV4-11 cells; in test [1]) was 10 to 1000 nM in each case. Also, the pIC50 at WDR5 was greater than 8.00.

Turning to `CCOc1cc([C@H](C)N2CCc3c(cc(CCN(C)CC)cc3-c3cn(C)c(=O)c(Cl)c3C)C2=O)ncc1C#N` [Example 170, (S)-6-(1-(5-(5-chloro-1,4-dimethyl-6-oxo-1,6-dihydropyridin-3-yl)-7-(2-(ethyl(methyl)amino)ethyl)-1-oxo-3,4-dihydroisoquinolin-2(1H)-yl)ethyl)-4-ethoxynicotinonitrile], the AC50 (with MV4-11 cells; in test [1]) was 10 to 1000 nM in each case. For the same compound, the pIC50 on WDR5 is greater than 8.00.

Take `CNc1nccn1Cc1cc(CN(C)C2COC2)c2c(c1)C(=O)N([C@@H](C)c1cc(OC)c(F)cn1)CC2` [Example 13]: the AC50 (with MV4-11 cells; in test [1]) was 10 to 1000 nM each time. The pIC50 at WDR5 is 6.00 to 8.00.

For `CCOc1cc([C@H](C)N2CCc3c(CN4CC(F)C4)cc(Cn4ccnc4NC)cc3C2=O)cnc1C#N` [Example 41, (S)-3-ethoxy-5-(1-(5-((3-fluoroazetidin-1-yl)methyl)-7-((2-(methylamino)-1H-imidazol-1-yl)methyl)-1-oxo-3,4-dihydroisoquinolin-2(1H)-yl)ethyl)picolinonitrile], the AC50 (in the test on MV4-11 cells; in test [1]) was 10 to 1000 nM in each case. Further, the pIC50 at WDR5 was 6.00 to 8.00.

Consider `CCOc1cc(C(C)N2CCc3c(cc(CCN(C)CC)cc3C(O)C(F)(F)F)C2=O)ncc1F` (stereo not drawn) [compound 260], for which the AC50 (in the test with MV4-11 cells; in test [1]) was 10 to 1000 nM in each case. Moreover, at WDR5, the pIC50 was 6.00 to 8.00.

In the case of `CCOc1cc([C@H](C)N2CCc3c(cc(CCN4C[C@@H](O)[C@H]4C)cc3-c3cc(C)cnc3C)C2=O)ncc1C#N` [Example 220], the AC50 (in the test with MV4-11 cells; in test [1]) was 10 to 1000 nM in each case. Besides, the pIC50 at WDR5 was greater than 8.00.

For the compound `CNc1nccn1Cc1cc2c(c(-c3cc(CO)cnc3Cl)c1)CCN([C@@H](C)c1ccc(F)c(OC)c1)C2=O` [Example 56, (S)-5-(2-chloro-5-(hydroxymethyl)pyridin-3-yl)-2-(1-(4-fluoro-3-methoxyphenyl)ethyl)-7-((2-(methylamino)-1H-imidazol-1-yl)methyl)-3,4-dihydroisoquinolin-1(2H)-one], the AC50 (in the test on MV4-11 cells; in test [1]) was 10 to 1000 nM in each case. Moreover, the pIC50 on WDR5 was 6.00 to 8.00.

On to `CCOc1cc([C@H](C)N2CCc3c(cc(CCN(C)CC)cc3-c3ccncc3Cl)C2=O)ncc1C#N` [Example 152, (S)-6-(1-(5-(3-chloropyridin-4-yl)-7-(2-(ethyl(methyl)amino)ethyl)-1-oxo-3,4-dihydroisoquinolin-2(1H)-yl)ethyl)-4-ethoxynicotinonitrile], for which the AC50 (with MV4-11 cells; in test [1]) was 10 to 1000 nM each time. Also, at WDR5, the pIC50 was 6.00 to 8.00.

Regarding `CCOc1cc([C@H](C)N2CCc3c(cc(CCN(C)CC)cc3-c3cc(C)ncc3C(F)F)C2=O)ncc1C#N` [Example 172, (S)-6-(1-(5-(5-(difluoromethyl)-2-methylpyridin-4-yl)-7-(2-(ethyl(methyl)amino)ethyl)-1-oxo-3,4-dihydroisoquinolin-2(1H)-yl)ethyl)-4-ethoxynicotinonitrile], the AC50 (in the test with MV4-11 cells; in test [1]) was 10 to 1000 nM in each case. Also, the pIC50 on WDR5 is greater than 8.00.

In the case of `CNc1nccn1Cc1cc(-c2cc(CO)cnc2Cl)c2ccn(Cc3cccc(OC(F)F)c3)c(=O)c2c1` [Example 98, 5-(2-chloro-5-(hydroxymethyl)pyridin-3-yl)-2-(3-(difluoromethoxy)benzyl)-7-((2-(methylamino)-1H-imidazol-1-yl)methyl)isoquinolin-1(2H)-one], the AC50 (in the test on MV4-11 cells; in test [1]) was 10 to 1000 nM in each case. The pIC50 at WDR5 was greater than 8.00.

As for `CCOc1cc([C@H](C)N2CCc3c(cc(CCN(C)CC)cc3-c3cc(C)ncc3C)C2=O)ncc1C#N` [Example 163, (S)-6-(1-(5-(2,5-dimethylpyridin-4-yl)-7-(2-(ethyl(methyl)amino)ethyl)-1-oxo-3,4-dihydroisoquinolin-2(1H)-yl)ethyl)-4-ethoxynicotinonitrile], the AC50 (with MV4-11 cells; in test [1]) was 10 to 1000 nM each time. Also, the pIC50 on WDR5 was greater than 8.00.

Turning to `CCOc1cc(CN2CCc3c(cc(CCN(C)CC)cc3-c3cc(C)ncc3F)C2=O)ncc1C#N` [Example 154, 4-ethoxy-6-((7-(2-(ethyl(methyl)amino)ethyl)-5-(5-fluoro-2-methylpyridin-4-yl)-1-oxo-3,4-dihydroisoquinolin-2(1H)-yl)methyl)nicotinonitrile], the AC50 (with MV4-11 cells; in test [1]) was 10 to 1000 nM in each case. For the same compound, the pIC50 at WDR5 is 6.00 to 8.00.

In the case of `CNc1nccn1Cc1cc2c(c(C(F)F)c1)CCN([C@@H](C)c1cc(OC)c(F)cn1)C2=O` [Example 92, (S)-5-(difluoromethyl)-2-(1-(5-fluoro-4-methoxypyridin-2-yl)ethyl)-7-((2-(methylamino)-1H-imidazol-1-yl)methyl)-3,4-dihydroisoquinolin-1(2H)-one], the AC50 (with MV4-11 cells; in test [1]) was 10 to 1000 nM each time. For the same compound, the pIC50 at WDR5 is 6.00 to 8.00.

Turning to `CCOc1cc([C@H](C)N2CCc3c(cc(Cn4ccnc4NC)cc3C(F)F)C2=O)ncc1F` [Example 91, (S)-5-(difluoromethyl)-2-(1-(4-ethoxy-5-fluoropyridin-2-yl)ethyl)-7-((2-(methylamino)-1H-imidazol-1-yl)methyl)-3,4-dihydroisoquinolin-1(2H)-one], the AC50 (in the test on MV4-11 cells; in test [1]) was 10 to 1000 nM each time. At WDR5, the pIC50 is 6.00 to 8.00.

In the case of `CNc1nccn1Cc1cc(-c2cc(CO)cnc2Cl)c2ccn(Cc3ccc(F)c(OC)c3)c(=O)c2c1` [Example 101, 5-(2-chloro-5-(hydroxymethyl)pyridin-3-yl)-2-(4-fluoro-3-methoxybenzyl)-7-((2-(methylamino)-1H-imidazol-1-yl)methyl)isoquinolin-1(2H)-one], the AC50 (with MV4-11 cells; in test [1]) was 10 to 1000 nM in each case. On WDR5, the pIC50 was 6.00 to 8.00.

`CCOc1cc([C@H](C)N2CCc3c(cc(Cn4ccnc4C)cc3-c3cn(C)c(=O)cc3C(F)F)C2=O)ncc1C#N` [Example 285]: the AC50 in the test with MV4-11 cells was less than 10 nM; in test [1] it was 10 to 1000 nM. Besides, the pIC50 on WDR5 was greater than 8.00.

In the case of `CCOc1cc(CN2CCc3c(cc(CCN(C)CC)cc3-c3cc(N)cnc3C)C2=O)ncc1C#N` [Example 201, 6-((5-(5-amino-2-methylpyridin-3-yl)-7-(2-(ethyl(methyl)amino)ethyl)-1-oxo-3,4-dihydroisoquinolin-2(1H)-yl)methyl)-4-ethoxynicotinonitrile], the AC50 (in the test on MV4-11 cells; in test [1]) was 10 to 1000 nM in each case. At WDR5, the pIC50 was 6.00 to 8.00.

`CCn1nc(CN2CCc3c(cc(Cn4ccnc4NC)cc3C3CC3)C2=O)cc1OC` [Example 86, 5-cyclopropyl-2-((1-ethyl-5-methoxy-1H-pyrazol-3-yl)methyl)-7-((2-(methylamino)-1H-imidazol-1-yl)methyl)-3,4-dihydroisoquinolin-1(2H)-one]: the AC50 (in the test with MV4-11 cells; in test [1]) was 10 to 1000 nM each time. Further, the pIC50 at WDR5 was 6.00 to 8.00.

With `CCOc1cc([C@H](C)N2CCc3c(cc(CCN(C)CC)cc3-c3cc(C)cnc3C)C2=O)ncc1C#N` [Example 114, (S)-6-(1-(5-(2,5-dimethylpyridin-3-yl)-7-(2-(ethyl(methyl)amino)ethyl)-1-oxo-3,4-dihydroisoquinolin-2(1H)-yl)ethyl)-4-ethoxynicotinonitrile], the AC50 (with MV4-11 cells; in test [1]) was 10 to 1000 nM throughout. For the same compound, the pIC50 on WDR5 was greater than 8.00.

As to `CNc1nccn1Cc1cc(CN2CC(F)C2)c2c(c1)C(=O)N(Cc1cnc(F)c(OC)c1)CC2` [Example 33, 2-((6-fluoro-5-methoxypyridin-3-yl)methyl)-5-((3-fluoroazetidin-1-yl)methyl)-7-((2-(methylamino)-1H-imidazol-1-yl)methyl)-3,4-dihydroisoquinolin-1(2H)-one], the AC50 (in the test on MV4-11 cells; in test [1]) was 10 to 1000 nM each time. The pIC50 at WDR5 was 6.00 to 8.00.
